Experimental findings from patent publication US20170304355A1, “COMPOSITIONS AND METHODS OF USE THEREOF” (priority 2014, published 2017) are described below.

Where two headings read alike, the source gives them in different places.

One assay relates to MRSA. In words: Broth microdilution checkerboard assay, PAAG and oxacillin. The assay is classed as cell-based, Staphylococcus aureus. Particulars: for MIC: Staphylococcus aureus, MRSA. The source says: (§1) Checkerboard and time kill bactericidal studies of mupriocin, methicillin-resistant Staphylococcus aureus strains 2-4C and 2-9A were completed as part of the synergy studies to evaluate potentiation of […] by PAAG (25% functionalized, 43 kDa). Synergistic relationships between PAAG and oxacillin were examined in vitro using the broth microdilution checkerboard assay in 96-well microtiter plates. Serial two-fold dilutions of PAAG and oxacillin were placed in each well with approximately 1×10^5 CFU/ml of S. aureus. Each plate was incubated 20 hours. The MIC was determined as the lowest concentration where no visible bacterial growth was observed. […] Controls for bacterial growth and sterility were included. The FIC for each strain was calculated. The FIC is an interaction coefficient indicating whether the combined inhibitory/bacteristatic effect of drugs is synergistic (FIC of 0.5 or less), additive ([…]), or antagonistic (FIC>4). The FIC is =A+B, where: A=(MIC of X with Y)/(MIC of drug X alone) and B=(MIC of Y with X)/(MIC of drug Y alone). The time-kill assay (vCFU) was performed using the microdilution technique. Approximately 1×10^5 CFU/ml of each bacteria tested was tested against mupriocin alone and in combination. Concentrations of PAAG tested were ½-⅛×MIC. The vCFU was determined after 24 hours treatment using the microtiter technique (8).
A general note: In broth dilution the organism is exposed to a series of concentrations in liquid medium.

Another assay concerns MRSA strain SA5. Kind of assay: Minimal Biofilm Inhibitory Concentration (MBIC) assay. The assay is classed as cell-based, Staphylococcus aureus. On the procedure: (§2) Each isolate was taken from the −80° C. freezer stock and grown for approximately 20 hours in LB Broth at 37° C. shaking water bath. […] The antibiotics and PAAG (22.4% functionalization, 36.9 kDa, 89.74 DDA, 1.63 PDI) were prepared similar to a checkerboard assay (2× concentration to accommodate addition of culture) in MH broth, in a sterile flat-bottomed 96-well plate. For MRSA strain SA5, the PAAG concentrations tested were 0-128 ug/ml. The vancomycin concentrations tested were 0-4 ug/ml. […] The tobramycin concentrations tested were 0-4 ug/ml. Plates were incubated in a 37° C. incubator.
(§3) The fractional inhibitory concentration (FIC) was calculated as; FIC calculation: […]
(§4) and the FIC relationship was defined as; Synergy: FIC≦0.5; Additive: 0.5<FIC≦1.0; or Indifferent: FIC>1.0.

For assay [1], the system named is mupirocin-resistant MRSA strains 2-4C and 2-9A. In words: Time-kill assay (vCFU), PAAG and mupirocin. The note with it: 24-hours. The assay is classed as cell-based, Staphylococcus aureus.
Source text: as §1

In assay [2] the test system is P. aeruginosa strain SUS116. Kind of assay: Minimal Biofilm Inhibitory Concentration (MBIC) assay. The assay is classed as cell-based. The note with it: for MBIC Tobramycin: alone. On the procedure:
as §2, §3, §4

Assay [3] concerns P. aeruginosa strain PA01. In words: Checkerboard assay, various PAAG's and tobramycin. The assay is classed as cell-based. The note with it: Pseudomonas aeruginosa.
Assay [4] has as its system clinical isolates of P. aeruginosa. In words: Checkerboard assay, PAAG and tobramycin. The note with it: Pseudomonas aeruginosa. The assay is classed as cell-based. On the procedure: Two independent checkerboard assays screened 64 unique combinations of antimicrobial concentrations in duplicate. […] Bacteria were incubated at 37° C. for 20 hours. The MIC was determined as the lowest concentration with no visible bacterial growth observed.

As to `Cc1onc(-c2ccccc2)c1C(=O)N[C@@H]1C(=O)N2[C@@H]1SC(C)(C)[C@@H]2C(=O)O` [OXA, oxacillin], the MIC – broadly, the smallest concentration in the dilution series that meets the test's criterion for growth inhibition – was not below 4 µg/mL with MRSA (all strains, alone, read-out: MIC oxacillin); 8 µg/mL in the assay with MRSA (strain 2-1A, alone, read-out: MIC OXA); 1 µg/mL in the assay with MRSA (strain 2-1A, read-out: MIC OXA with PAAG); 16 µg/mL with MRSA (strain 2-4C, alone, read-out: MIC OXA); 2 µg/mL in the assay on MRSA (strain 2-4C, read-out: MIC OXA with PAAG); 8 µg/mL in the assay with MRSA (strain 2-9A, alone, read-out: MIC OXA). The MIC in the assay on MRSA (strain 2-9A, read-out: MIC OXA with PAAG) amounted to 0.5 µg/mL; in the assay with MRSA (strain MW-2, alone, read-out: MIC OXA), 4 µg/mL; in the assay on MRSA (strain MW-2, read-out: MIC OXA with PAAG), 1 µg/mL; in the assay with MRSA (strain SA05, alone, read-out: MIC OXA), 4 µg/mL; in the assay on MRSA (strain SA05, read-out: MIC OXA with PAAG) it was 1 µg/mL. Also, in the assay on MRSA (all strains, PAAG at 2, 8 or 16 μg/ml), the “MIC of oxacillin after addition of PAAG (susceptible range)” value was not below 2 µg/mL.
Consider `CN[C@H](CC(C)C)C(=O)N[C@H]1C(=O)N[C@@H](CC(N)=O)C(=O)N[C@H]2C(=O)N[C@H]3C(=O)N[C@H](C(=O)N[C@H](C(=O)O)c4cc(O)cc(O)c4-c4cc3ccc4O)[C@H](O)c3ccc(c(Cl)c3)Oc3cc2cc(c3O[C@@H]2O[C@H](CO)[C@@H](O)[C@H](O)[C@H]2O[C@H]2C[C@](C)(N)[C@H](O)[C@H](C)O2)Oc2ccc(cc2Cl)[C@H]1O` [Vancomycin], for which, in the assay on MRSA strain SA5 (alone), the “MBIC Vancomycin” value came out at 2 µg/mL. The “MBIC Vancomycin (with PAAG)” value with MRSA strain SA5 (in combination with PAAG) stood at 1 µg/mL.
On to `C/C(=C\C(=O)OCCCCCCCCC(=O)O)C[C@@H]1OC[C@H](C[C@@H]2O[C@H]2[C@@H](C)[C@H](C)O)[C@@H](O)[C@H]1O` [Mup, mupirocin], for which the “Log10 reduction (CFU/ml)” value in assay [1] (strain 2-4C, Mup 8 μg/ml alone) is listed as 0 Log10 CFU/ml; in assay [1] (strain 2-9A, Mup 4 μg/ml alone), 0 Log10 CFU/ml.
On to `C[C@H]1[C@H](NC(=O)/C(=N\OC(C)(C)C(=O)O)c2csc(N)n2)C(=O)N1S(=O)(=O)O` [Aztreonam], for which the “MBIC Aztreonam (with PAAG)” value in assay [2] (in combination with PAAG) stood at 0.06 µg/mL.
As for `NC[C@H]1O[C@H](O[C@H]2[C@H](O)[C@@H](O[C@H]3O[C@H](CO)[C@@H](O)[C@H](N)[C@H]3O)[C@H](N)C[C@@H]2N)[C@H](N)C[C@@H]1O` [Tobramycin], the minimum inhibitory concentration (MIC) was found to be 1 µg/mL in assay [3] (PA01, alone, assay run with PAAG^1, read-out: MIC Tobramycin); 0.5 µg/mL in assay [3] (PA01, alone, assay run with PAAG^2, read-out: MIC Tobramycin); 0.5 µg/mL in assay [3] (PA01, alone, assay run with PAAG^3, read-out: MIC Tobramycin); 0.031 µg/mL in assay [3] (PA01, with PAAG^1 (27%, 32 kDa), read-out: MIC Tobramycin (with PAAG)); 0.031 µg/mL in assay [3] (PA01, with PAAG^2 (31%, 54 kDa), read-out: MIC Tobramycin (with PAAG)); 0.063 µg/mL in assay [3] (PA01, with PAAG^3 (25%, 40 kDa), read-out: MIC Tobramycin (with PAAG)). Also, the MIC in assay [4] (strain AMT-32-4, alone, read-out: MIC Tobramycin) turned out to be 0.31 µg/mL; in assay [4] (strain AMT-32-4, read-out: MIC Tobramycin (with PAAG)) it was 0.13 µg/mL; in assay [4] (strain MR29, alone, read-out: MIC Tobramycin), 0.31 µg/mL; in assay [4] (strain MR29, read-out: MIC Tobramycin (with PAAG)), 0.25 µg/mL; in assay [4] (strain MR 51, alone, read-out: MIC Tobramycin), 0.31 µg/mL; in assay [4] (strain MR 51, read-out: MIC Tobramycin (with PAAG)), 0.13 µg/mL. The minimal inhibitory concentration (MIC) in assay [4] (strain PA01, alone, read-out: MIC Tobramycin) was determined as 0.31 µg/mL; in assay [4] (strain PA01, read-out: MIC Tobramycin (with PAAG)), 0.13 µg/mL; in assay [4] (strain SUS 116, alone, read-out: MIC Tobramycin), 1.25 µg/mL; in assay [4] (strain SUS 116, read-out: MIC Tobramycin (with PAAG)) it was 0.13 µg/mL. Besides, the “MBIC Tobramycin” value in assay [2] (PAAG and tobramycin table (TABLE 2)) was 6.25 µg/mL; in assay [2] (column of the PAAG and aztreonam table (TABLE 1)), 2 µg/mL. Also, the “MBIC Tobramycin (with PAAG)” value in assay [2] (in combination with PAAG) amounted to 2 µg/mL.
